Experimental data from US5486532A, “Benzospiroalkenes” (Adir et Compagnie, priority 1993, dated 1996).
Structures can show the parent of a compound that is named as a salt. Where two headings read alike, the source gives them in different places.

How the values were obtained:
[1] = test system: loss of the righting reflex in rats; test: Test of loss of the righting reflex in rats, induction (agonistic effect); assay type: in vivo, male Wistar rats; details: for ED50: Rattus norvegicus, sc, 0.5 h, read-out: Induction of the loss of righting reflex ED50; for induction of a loss of the reorienting reflex (in words): rats
Experimental: (§1) Animals and environment The animals used are male Wistar rats (IFFA CREDO). They weigh between 200 and 250 g at the time of the experiment. The rats live in an animal house, in cages, four to a cage, with free access to food and drinking water, for one week before being studied. 24 hours before the experiment, the rats are deprived of food. The rats are transferred into the laboratory a few hours before the experiment. The animal house and the laboratory are climatically controlled at a temperature of 21 1° C. and a hygrometry of 55 5%. The lighting cycle is 12 h/12 h with the light switched on from 7.0 a.m. to 7.0 p.m. The rats are only experimented on once.
(§2) The compounds are injected subcutaneously into the rats which are placed in individual cages. 30 minutes after the injection the effect of these products on the fighting reflex is observed and a score is attributed. Immediately after, the rats receive an intraperitoneal injection of xylazine at a dose of 40 mg/kg. 30 minutes after the injection of xylazine (=60 minutes after the injection of the compounds to be tested), a new righting reflex score is attributed. In order to evaluate the righting reflex, the rats are placed gently on their backs and then released. A score of 0 is attributed to an immediate and complete righting, a score of 1 to a righting without recovery of a normal position, a score of 2 to a righting attempt but in which the rat remains stretched out on its back and a score of 3 to a complete loss of the reorienting reflex.
(§3) In order to evaluate the effect of the compounds tested on the loss of the righting reflex, a score of 1 or more is considered as an agonistic effect. The percentage of animals which have a score of 1 or more is calculated per dose, as is the ED50 (=dose at which 50% of the animals show an agonistic effect).
(§4) The products are dissolved in distilled water, or distilled water with a few drops of lactic acid in the case of solubilization difficulties. The pH of the solutions is then brought to 5 using sodium hydroxide solution. All the products are administered in a volume of 10 ml/kg.

[2] = test system: loss of righting reflex induced by xylazine in rats; test: Antagonism of the loss of righting reflex induced by xylazine in rats; assay type: in vivo, male Wistar rats; details: Rattus norvegicus, sc, 1 h, read-out: Antagonism of the loss of righting reflex induced by xylazine ED50
Experimental: as §1, §2
as §3, with “fighting reflex induced by xylazine,” for “righting reflex,”, “2” for “1”, “less” for “more”, “antagonistic” for “agonistic”, “effect). The ED50 are calculated according to Litchfield and Wilcoxon.” for “effect).”
as §4

dog femoral arteries = test: Contraction of isolated dog femoral arteries; details: Canis lupus familiaris
Experimental: (§5) The technique used is based on that described by Fowler et al. (J. Pharmacol. Exp. Ther., 229, 712-718, 1984). Male or female mongrel dogs of approximately 15-25 kg were used as organ sources. The animals are anesthetized with pentobarbital (30 mg/kg intravenously). The legs are incized and the blood vessels removed. They are placed in Krebs-Ringer liquid (118 mM NaCl; 25 mM NaHCO3; 10 mM Glucose; 4.7 mM KCl; 1.25 mM CaCl2; 1.19 mM MgSO4; 1.14 mM KH2 PO4) at room temperature and under a sparge of carbogen (95% O2, 5% CO2). These blood vessels are then carefully freed of their fat and then cut into rings 2 mm wide and mounted under a base tension of 4 g (femoral arteries) or 1 g (saphena veins) in tanks thermostated at 37° C. containing Krebs-Ringer liquid and constantly sparged with carbogen. A lower hook constitutes the fixed point, whereas the upper hook is connected to an isometric force sensor. The variations in tension are digitized, stored on disk and processed by an information technology system. After mounting, the organs are left to rest for 90 minutes, with rinses being carried out every 30 min. After readjustment of the base tension, a contraction is induced by a single dose of KCl (100 mM). After stabilization, washing and returning to the base line, a contraction is provoqued by a single dose of phenylephrine (submaximal concentration) in order to regulate the following contractions. After washing and returning to the baseline, an effect/concentration curve is produced by addition of cumulative doses of agonist (the space between the doses is a semi-log). This experiment makes it possible to calculate the 50% effective concentration (EC50) in the following way: the tension values are first of all converted to percentages relative to the maximum effect induced by 100 mM of KCl. This EC50 is determined by non-linear regression by the SIMPLEX method (M. S. Caceci, Byte, 340-362, 1984), calculated according to the mass action law model of L. Michaelis and M. L. Menten (Biochem. Zeitschrift, 49, 333-369, 1913).
(§6) E=(Emax*C^n)(EC^n +C^n) with E=effect; Emax=maximum effect; C=concentration; EC=EC50; n=Hill number
(§7) The products of the invention contract dog arteries and veins. The maximum for these contractions approaches that obtained with KCl.

saphena veins = test: Contraction of isolated dog saphena veins; details: Canis lupus familiaris
Experimental: as §5, §6, §7

[3] = test system: arterial pressure in amyelated rats; test: In vivo study in amyelated rats, arterial pressure; design: species or system Sprague Dawley rats; details: Rattus norvegicus, iv, tertatolol pretreated, no prazosin or yohimbine, read-out: C20 Control (concentration which increases the pressure by 20 mmHg)
Description: (§8) Male Sprague Dawley rats (300-400 g) are anesthetized with ether. The trachea is cannulated, the spinal column is destroyed using a stainless-steel rod and the animal is 1. 5 immediately placed under artificial respiration. The vagus nerves are dissected. The carotid arteries are ligatured and a catheter is placed in one and serves to record the arterial pressure. Three other catheters are placed in the jugular veins and in the vein of the penis and serve for the injections. The temperature of the animals is maintained at 36° C. The animal is pretreated by an injection of tertatolol […]. The animal is also pretreated 10 minutes later with prazosin ([…]) or yohimbine (1 mg/kg) when it is desired to determine the alpha1 - or alpha2-adrenergic properties of the product. Ten minutes later, increasing cumulative doses of product are injected every 20 seconds. The variations in arterial pressure are detected using a Statham P23XL pressure cell and are recorded. The pressure values are expressed in mmHg. This experiment makes it possible to calculate the concentration which increases the pressure by 20 mmHg (C20) by non-linear regression according to the mass action law model of Michaelis and Menten as described above. The maximum effect obtained is subsequently convened to a percentage relative to the maximum effect induced by phenylephrine. The alpha1 - or alpha2-adrenergic components of the product are evaluated using the C20 ratio obtained in the presence of prazosin or yohimbine on the values obtained in the absence of these antagonists. In amyelated rats, the products of the invention produce hypertensions which are sensitive to prazosin and to yohimbine.

alpha1-adrenergic = test: Amyelated rats, alpha1-adrenergic component (C20 ratio with prazosin); assay type: in vivo, Sprague Dawley rats; details: pretreated with prazosin
Description: as §8

alpha2-adrenergic = test: Amyelated rats, alpha2-adrenergic component (C20 ratio with yohimbine); assay type: in vivo, Sprague Dawley rats; details: pretreated with yohimbine (1 mg/kg)
Description: as §8

[4] = test system: synthetic activity of noradrenaline in rat hippocampus; test: Effect of α2-adrenergic ligands on the synthetic activity of noradrenaline in rat hippocampus (L-DOPA accumulation); assay type: in vivo, male Wistar rats; details: 60 minutes, n = 4
Experimental: 200-220 g male Wistar rats Iffa Credo, Illskischen, France) are individually installed in cages with free access to food and drinking water. The laboratory temperature is 21 1° C. and the percent humidity is 60 5%. The day/night cycle is 12 hours (light switched on in the morning at 7.30).
The effects of the molecules on the rate of regeneration of noradrenaline is determined 60 minutes after their administration via the subcutaneous route. […] The animals are then decapitated, their brain is removed and the hippocampus is dissected. The hippocampus is subsequently homogenized in 500 1 of 0.1M HClO4 containing 0.5% of Na2 S2 O5 and 0.5% of disodium EDTA and centrifuged at 15000 g for 15 minutes at 4° C. In order to measure the amounts of L-dihydroxyphenylalanine (L-DOPA), the precursor of noradrenaline, present, the supernatants are diluted 20 times in the chromatography mobile phase and 100 1 are analyzed by high performance liquid chromatography with electrochemical detection (Waters M460 detector, potential of the working electrode:850 mV). The column (Hypersil ODS 5 m, C18, 150 4.6 mm, Spectra Physics) is thermostatted at 25° C. […] The flow rate is 1 ml/min. The amounts of L-DOPA are determined relative to an external calibration and are compared with the amount of protein present in the hippocampi. The proteins are quantified according to the method of Smith et at. […] The average amount of L-DOPA analyzed in the animals treated by the solvent is considered as the control value (100%). The amounts analyzed in the animals treated by the molecules are then expressed as a percentage relative to this control value.
Statistics The data obtained for the control animals and the treated animals are compared with a variance analysis (ANOVA), followed by a Dunnett test. The significance limit is set at p<0.05. The data are expressed as a mean standard deviation.
Compounds The injection are made subcutaneously in a volume of 1.0 ml/kg. The substances are dissolved in sterile water with, if necessary, a few drops of lactic acid and then readjusted to a pH which is as close as possible to neutrality with sodium hydroxide. […] The doses are expressed relative to their weight of free base.

[5] = s.c., 30 minutes after injection, score of 1 or more
[6] = s.c., 60 minutes after injection, xylazine 40 mg/kg i.p., score of 2 or less
[7] = 30 minutes after xylazine 40 mg/kg i.p., distilled water pretreatment, N=10

NC1=NC2(CCc3cccc(Cl)c3C2)CO1 (single isomer, unassigned) [Example 13, Spiro[(1-oxa-2-amino-3-azacyclopent-2-ene)-4:2'-(8'-chloro-1',2', 3',4'-tetrahydronaphthalene)]hydrochloride, βisomer]
ED50 [1, 5]: 0.15 mg/kg | induction of a loss of the reorienting reflex (in words) [1]: behave as agonists by inducing a loss of the reorienting reflex | ED50 [2, 6]: > 0.63 mg/kg

COc1cccc2c1CC1(CC2)CNC=N1 (stereo not shown) [Example 3, Spiro[(1,3-diazacyclopent-1-ene)-5:2'-(8'-methoxy-1',2',3', 4'-tetrahydronaphthalene)]fumarate]
EC50 (dog femoral arteries; dog femoral artery rings, cumulative doses): 3000 nM | Emax (dog femoral arteries; maximum contraction relative to 100 mM KCl, dog femoral artery, read-out: ARTERY Max): 94% | EC50 (saphena veins; dog saphena vein rings, cumulative doses): 400 nM | Emax (saphena veins; maximum contraction relative to 100 mM KCl, dog saphena vein, read-out: VEIN Max): 100%

Oc1cccc2c1CC1(CC2)CNC=N1 (stereo not shown) [Example 5, Spiro[(1,3-diazacyclopent-1-ene)-5:2'-(8'-hydroxy-1',2',3', 4'-tetrahydronaphthalene)]fumarate]
ED (20 mmHg) [3]: 0.0048 mg/kg | Ratio treated C20 / control C20, Prazosin (alpha1-adrenergic): 0.9 | Ratio treated C20 / control C20, Yohimbine (alpha2-adrenergic): 12.0

NC1=NC2(CCc3cccc(Cl)c3C2)CO1 (stereo not shown) [Example 9, Spiro[(1-oxa-2-amino-3-azacyclopent-2-ene)-4:2'-(8'-chloro-1', 2',3',4'-tetrahydronaphthalene)]hydrochloride]
Accumulation of L-DOPA ([4]; dose 0.01 mg/kg s.c.): 51 ± 7 Control percentages | Accumulation of L-DOPA ([4]; dose 0.04 mg/kg s.c.): 50 ± 7 Control percentages | Accumulation of L-DOPA ([4]; dose 0.16 mg/kg s.c.): 44 ± 2 Control percentages | Accumulation of L-DOPA ([4]; dose 0.63 mg/kg s.c.): 34 ± 2 Control percentages | ED50 [1, 5]: 0.17 mg/kg | induction of a loss of the reorienting reflex (in words) [1]: behave as agonists by inducing a loss of the reorienting reflex | ED50 [2, 6]: > 0.63 mg/kg

Cc1ccc2c(c1C)CC1(CC2)COC(N)=N1 (stereo not shown) [Example 11, Spiro[(1-oxa-2-amino-3-azacyciopent-2-ene)-4:2'-(7-8'-dimethyl-1', 2',3',4'-tetrahydronaphthalene)]hydrochloride]
ED50 [1, 5]: 1.14 mg/kg | induction of a loss of the reorienting reflex (in words) [1]: behave as agonists by inducing a loss of the reorienting reflex | ED50 [2, 6]: > 2.5 mg/kg

c1ccc2c(c1)OCC(C1=NCCN1)O2 (stereo not shown) [IDAZOXAN, idazoxan]
ED50 [1, 5]: > 10 mg/kg | induction of a loss of the reorienting reflex (in words) [1]: inactiv | ED50 [2, 6]: 0.24 mg/kg

Brc1c(NC2=NCCN2)ccc2nccnc12 [UK 14,304, reference compound]
Accumulation of L-DOPA ([4]; dose 0.01 mg/kg s.c.): 98 ± 13 Control percentages | Accumulation of L-DOPA ([4]; dose 0.04 mg/kg s.c.): 70 ± 2 Control percentages | Accumulation of L-DOPA ([4]; dose 0.16 mg/kg s.c.): 40 ± 3 Control percentages | Accumulation of L-DOPA ([4]; dose 0.63 mg/kg s.c.): 48 ± 7 Control percentages | ED50 [1]: 0.24 mg/kg | induction of a loss of the reorienting reflex (in words) [1]: behave as agonists by inducing a loss of the reorienting reflex | ED50 [2]: > 10 mg/kg

Cc1cccc(C)c1N=C1NCCCS1 [XYLAZINE, xylazine]
control rats that had lost the righting reflex (in words) [1, 7]: all the control rats (N=10) had lost the fighting reflex | righting reflex score, mean±SD [1, 7]: 3±0 | ED50 [1]: 6.1 mg/kg | induction of a loss of the reorienting reflex (in words) [1]: behave as agonists by inducing a loss of the reorienting reflex
